From PubChem BioAssay AID1963848 (Molecular Pharmacology Branch, DTP, NCI, 2024)
pIC50: −log10 of the molar value.

System: 379773-124-R-J2-PDC spheroid viability
Test: Anticancer human tumor 379773-124-R-J2-PDC patient-derived endometrial carcinoma cell line growth inhibition [POLQ]
Conditions: spheroids with HUVEC and MSC; for pIC50: curve of first compound; for viability, T/C: stronger effect = lower value
Method in brief: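 PDC + HUVEC + MSC complex spheroids; POLQ inhibitors ± partner drugs; top conc. at/near clinical Cmax, else 10 microM (SN-38 1 microM), half-log dilutions; 37 degrees C, 5% CO2.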

[1] = second compound 0.0316 µM, first compound 0.0316 µM
[2] = second compound 0.0316 µM, first compound 0.1 µM
[3] = second compound 0.0316 µM, first compound 0.316 µM
[4] = second compound 0.0316 µM, first compound 1 µM
[5] = second compound 0.0316 µM, first compound 3.16 µM
[6] = second compound 0.0316 µM, first compound 10 µM
[7] = second compound 0.1 µM, first compound 0.0316 µM
[8] = second compound 0.1 µM, first compound 0.1 µM
[9] = second compound 0.1 µM, first compound 0.316 µM
[10] = second compound 0.1 µM, first compound 1 µM
[11] = second compound 0.1 µM, first compound 3.16 µM
[12] = second compound 0.1 µM, first compound 10 µM
[13] = second compound 0.316 µM, first compound 0.0316 µM
[14] = second compound 0.316 µM, first compound 0.1 µM
[15] = second compound 0.316 µM, first compound 0.316 µM
[16] = second compound 0.316 µM, first compound 1 µM
[17] = second compound 0.316 µM, first compound 3.16 µM
[18] = second compound 0.316 µM, first compound 10 µM
[19] = second compound 1 µM, first compound 0.0316 µM
[20] = second compound 1 µM, first compound 0.1 µM
[21] = second compound 1 µM, first compound 0.316 µM
[22] = second compound 1 µM, first compound 1 µM
[23] = second compound 1 µM, first compound 3.16 µM
[24] = second compound 1 µM, first compound 10 µM
[25] = second compound 3.16 µM, first compound 0.0316 µM
[26] = second compound 3.16 µM, first compound 0.1 µM
[27] = second compound 3.16 µM, first compound 0.316 µM
[28] = second compound 3.16 µM, first compound 1 µM
[29] = second compound 3.16 µM, first compound 3.16 µM
[30] = second compound 3.16 µM, first compound 10 µM
[31] = second compound 10 µM, first compound 0.0316 µM
[32] = second compound 10 µM, first compound 0.1 µM
[33] = second compound 10 µM, first compound 0.316 µM
[34] = second compound 10 µM, first compound 1 µM
[35] = second compound 10 µM, first compound 3.16 µM
[36] = second compound 10 µM, first compound 10 µM
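Note: spheroids exposed to drugs for seven days before readout.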
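Throughout, for viability, T/C: percent viability relative to DMSO vehicle control taken as 100%.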

Compound: CC1COCCN1c1cc(-c2ccnn2C)c2ccnc(-c3ccn[nH]3)c2n1 (stereo unspecified) + Cc1cccc(N(C)C(=O)C2C(O)CCN2c2nc(C)cc(C(F)(F)F)c2C#N)c1
- pIC50 (second compound 0.0316 µM): 7.00
- pIC50 (second compound 0.1 µM): 6.99
- pIC50 (second compound 0.316 µM): 7.07
- pIC50 (second compound 1 µM): 7.13
- pIC50 (second compound 3.16 µM): 6.99
- pIC50 (second compound 10 µM): 7.02
- viability, T/C [1]: 81.4%
- viability, T/C [2]: 49.9%
- viability, T/C [3]: 12.2%
- viability, T/C [4]: 10.4%
- viability, T/C [5]: 9.61%
- viability, T/C [6]: 5.75%
- viability, T/C [7]: 83.7%
- viability, T/C [8]: 50.7%
- viability, T/C [9]: 16.9%
- viability, T/C [10]: 10.2%
- viability, T/C [11]: 8.42%
- viability, T/C [12]: 6.47%
- viability, T/C [13]: 79.4%
- viability, T/C [14]: 45.1%
- viability, T/C [15]: 10.8%
- viability, T/C [16]: 7.57%
- viability, T/C [17]: 9.57%
- viability, T/C [18]: 7.53%
- viability, T/C [19]: 76.5%
- viability, T/C [20]: 40.7%
- viability, T/C [21]: 13.5%
- viability, T/C [22]: 8.7%
- viability, T/C [23]: 8.89%
- viability, T/C [24]: 6.67%
- viability, T/C [25]: 76.9%
- viability, T/C [26]: 50.7%
- viability, T/C [27]: 14%
- viability, T/C [28]: 9.29%
- viability, T/C [29]: 8.28%
- viability, T/C [30]: 6.05%
- viability, T/C [31]: 70.5%
- viability, T/C [32]: 49.3%
- viability, T/C [33]: 14%
- viability, T/C [34]: 9.57%
- viability, T/C [35]: 9.04%
- viability, T/C [36]: 5.97%

Compound: CC1COCCN1c1cc(C2(O)CC3CCC(C2)O3)c2cnn(-c3ccn[nH]3)c2n1 (stereo unspecified) + COC1C(OC(N)=O)C(O)C(Oc2ccc3c(O)c(NC(=O)c4ccc(O)c(CC=C(C)C)c4)c(=O)oc3c2C)OC1(C)C
- pIC50 (second compound 0.0316 µM): 7.18
- pIC50 (second compound 0.1 µM): 7.00
- pIC50 (second compound 0.316 µM): 6.99
- pIC50 (second compound 1 µM): 7.12
- pIC50 (second compound 3.16 µM): 7.06
- pIC50 (second compound 10 µM): 7.12
- viability, T/C [1]: 74.8%
- viability, T/C [2]: 36.6%
- viability, T/C [3]: 14.5%
- viability, T/C [4]: 10.8%
- viability, T/C [5]: 7.52%
- viability, T/C [6]: 2.19%
- viability, T/C [7]: 82.9%
- viability, T/C [8]: 49.9%
- viability, T/C [9]: 11.2%
- viability, T/C [10]: 8.68%
- viability, T/C [11]: 7.3%
- viability, T/C [12]: 2.55%
- viability, T/C [13]: 90%
- viability, T/C [14]: 51.2%
- viability, T/C [15]: 12.9%
- viability, T/C [16]: 10.9%
- viability, T/C [17]: 6.18%
- viability, T/C [18]: 2.42%
- viability, T/C [19]: 77.8%
- viability, T/C [20]: 41.4%
- viability, T/C [21]: 11.6%
- viability, T/C [22]: 10.2%
- viability, T/C [23]: 6.65%
- viability, T/C [24]: 1.98%
- viability, T/C [25]: 71.9%
- viability, T/C [26]: 47%
- viability, T/C [27]: 11.7%
- viability, T/C [28]: 9.21%
- viability, T/C [29]: 7.19%
- viability, T/C [30]: 2.23%
- viability, T/C [31]: 75.4%
- viability, T/C [32]: 42.4%
- viability, T/C [33]: 10.3%
- viability, T/C [34]: 9.86%
- viability, T/C [35]: 7.38%
- viability, T/C [36]: 2.73%

Compound: CC(C)n1c(=O)n(C)c2cnc3cc(F)c(-c4ccc(OCCCN5CCCCC5)nc4)cc3c21 + COC1C(OC(N)=O)C(O)C(Oc2ccc3c(O)c(NC(=O)c4ccc(O)c(CC=C(C)C)c4)c(=O)oc3c2C)OC1(C)C
- pIC50 (second compound 0.0316 µM): < 5.00
- pIC50 (second compound 0.1 µM): < 5.00
- pIC50 (second compound 0.316 µM): < 5.00
- pIC50 (second compound 1 µM): < 5.00
- pIC50 (second compound 3.16 µM): < 5.00
- pIC50 (second compound 10 µM): < 5.00
- viability, T/C [1]: 92.3%
- viability, T/C [2]: 74%
- viability, T/C [3]: 86.2%
- viability, T/C [4]: 75.7%
- viability, T/C [5]: 67.5%
- viability, T/C [6]: 56.5%
- viability, T/C [7]: 85.2%
- viability, T/C [8]: 87.4%
- viability, T/C [9]: 87.5%
- viability, T/C [10]: 76.6%
- viability, T/C [11]: 64.3%
- viability, T/C [12]: 68.4%
- viability, T/C [13]: 99.1%
- viability, T/C [14]: 81.2%
- viability, T/C [15]: 84%
- viability, T/C [16]: 75.3%
- viability, T/C [17]: 67.5%
- viability, T/C [18]: 60.5%
- viability, T/C [19]: 85.5%
- viability, T/C [20]: 81.2%
- viability, T/C [21]: 77.4%
- viability, T/C [22]: 71.7%
- viability, T/C [23]: 69.8%
- viability, T/C [24]: 75.7%
- viability, T/C [25]: 78%
- viability, T/C [26]: 81.7%
- viability, T/C [27]: 77.7%
- viability, T/C [28]: 68.1%
- viability, T/C [29]: 77.7%
- viability, T/C [30]: 80.4%
- viability, T/C [31]: 80.2%
- viability, T/C [32]: 74.6%
- viability, T/C [33]: 79.7%
- viability, T/C [34]: 72.2%
- viability, T/C [35]: 80.7%
- viability, T/C [36]: 64.9%
